Here are results for 6 compounds from publication PMC12818446 (ACS chemical biology, 2025).

Test [1] addresses T1, ecLeuRS (Escherichia coli, UniProt P07813). Particulars: cited from earlier work.
Test [2] has as its target T1, ecLeuRS. The experiment in a line: SPR single-cycle kinetics, BAP-ecLeuRS in the presence of AMP. Particulars: for Kd/IC50: ratio of SPR Kd (AMP) and IC50 after 1 h preincubation; for kon: read-out: SPR kon. The class given is binding.
In test [3] the test system is E. coli ATCC25922. The experiment in a line: MIC, visible growth in 96-well plates. Format: cell-based, Escherichia coli.
Test [4] addresses T2, mtLeuRS (Mycobacterium tuberculosis, UniProt P9WFV1). In words: biochemical. Particulars: IC50, 1 h preincubation, 1 h preincubation with enzyme and mttRNA^Leu.
Test [5] has as its target T1, ecLeuRS. In words: LeuRS aminoacylation-activity assay. The class given is biochemical. Particulars: IC50, 1 h preincubation, 1 h preincubation with enzyme and ectRNA^Leu.
Test [6] deals with T3, ecLeuRS D342E (Escherichia coli, UniProt P07813, D342E). The experiment in a line: biochemical. Format: biochemical.
T3 sequence (P07813 whole entry D342E): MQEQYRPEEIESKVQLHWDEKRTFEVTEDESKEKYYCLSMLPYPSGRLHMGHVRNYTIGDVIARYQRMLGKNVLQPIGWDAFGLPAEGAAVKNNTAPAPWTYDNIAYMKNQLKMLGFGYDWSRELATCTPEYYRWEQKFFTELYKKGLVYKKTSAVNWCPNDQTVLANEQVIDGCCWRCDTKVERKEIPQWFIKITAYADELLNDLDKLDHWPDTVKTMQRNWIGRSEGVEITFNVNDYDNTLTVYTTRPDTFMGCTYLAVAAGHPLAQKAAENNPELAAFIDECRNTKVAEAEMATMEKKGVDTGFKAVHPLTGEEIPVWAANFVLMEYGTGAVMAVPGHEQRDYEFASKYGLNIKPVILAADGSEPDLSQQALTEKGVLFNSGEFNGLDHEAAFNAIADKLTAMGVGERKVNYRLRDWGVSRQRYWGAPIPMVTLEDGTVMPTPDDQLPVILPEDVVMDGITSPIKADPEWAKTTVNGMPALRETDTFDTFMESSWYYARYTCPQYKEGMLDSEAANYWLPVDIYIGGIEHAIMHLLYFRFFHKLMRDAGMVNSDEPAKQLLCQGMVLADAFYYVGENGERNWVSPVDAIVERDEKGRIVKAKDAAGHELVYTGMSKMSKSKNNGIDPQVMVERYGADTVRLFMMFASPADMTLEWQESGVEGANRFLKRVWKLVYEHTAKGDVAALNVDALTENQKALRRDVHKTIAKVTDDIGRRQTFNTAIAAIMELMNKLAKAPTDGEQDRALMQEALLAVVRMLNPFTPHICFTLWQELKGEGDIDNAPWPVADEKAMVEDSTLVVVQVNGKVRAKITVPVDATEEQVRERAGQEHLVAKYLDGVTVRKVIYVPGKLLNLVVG
The target in test [7] is T2, mtLeuRS. Format: binding.
Test [8] has as its target T3, ecLeuRS D342E. In words: biochemical. Format: binding.
For a further test, the system named is M. tuberculosis H37Rv. The experiment in a line: MIC, microplate Alamar blue assay. The class given is cell-based. To be noted: Mycobacterium tuberculosis. On the technique in general: Resazurin is reduced to fluorescent resorufin, in cell work by metabolically active cells.
Test [9] concerns M. tuberculosis H37Rv_LuxABCDE. The experiment in a line: Post-antibiotic effect, autobioluminescent strain. The class given is cell-based, Mycobacterium tuberculosis.
Test [10] relates to E. coli mutant strains (ecLeuRS D342E, G333D, D345N, V335D). The experiment in a line: microbe, parasite or virus in culture. Format: cell-based, Escherichia coli.
The test system of the next test is E. coli ΔtolC and ΔacrAB. The class given is cell-based, Escherichia coli.
Test [11] concerns E. coli ATCC25922. In words: Checkerboard MIC assay and FIC index. Format: cell-based, Escherichia coli. Particulars: for MIC: Escherichia coli.
Test [12] concerns E. coli ATCC25922. In words: Time-kill assay. Format: cell-based, Escherichia coli. To be noted: combination of ganfeborole and Nva, M9 medium.
A further test relates to human cytoplasmic LeuRS. Particulars: read-out: reported IC50; cited from earlier work.
Test [13] concerns human mitochondrial LeuRS. Particulars: read-out: reported IC50; cited from earlier work.
Test [14] deals with T2, mtLeuRS. To be noted: mtLeuRS in the presence of AMP; cited from earlier work.
In a further test the test system is M. tuberculosis. Particulars: cited from earlier work.
Setting [15] is: 1xMIC exposure for 2.5 h, 10,000-fold dilution.
[16] abbreviates: 10xMIC exposure for 2.5 h, 10,000-fold dilution.
Where [17] appears, read: 30xMIC exposure for 2.5 h, 10,000-fold dilution.
The mark [18] stands for this setting: 50xMIC exposure for 2.5 h, 10,000-fold dilution.

≈ marks a conversion by molar mass, not a printed value. Where “and” joins values, the source holds several entries; their conditions need not be identical. Identical values can stand only once. Like-named read-outs stand apart in the source and are kept apart here.

T2 sequence (P9WFV1 whole entry): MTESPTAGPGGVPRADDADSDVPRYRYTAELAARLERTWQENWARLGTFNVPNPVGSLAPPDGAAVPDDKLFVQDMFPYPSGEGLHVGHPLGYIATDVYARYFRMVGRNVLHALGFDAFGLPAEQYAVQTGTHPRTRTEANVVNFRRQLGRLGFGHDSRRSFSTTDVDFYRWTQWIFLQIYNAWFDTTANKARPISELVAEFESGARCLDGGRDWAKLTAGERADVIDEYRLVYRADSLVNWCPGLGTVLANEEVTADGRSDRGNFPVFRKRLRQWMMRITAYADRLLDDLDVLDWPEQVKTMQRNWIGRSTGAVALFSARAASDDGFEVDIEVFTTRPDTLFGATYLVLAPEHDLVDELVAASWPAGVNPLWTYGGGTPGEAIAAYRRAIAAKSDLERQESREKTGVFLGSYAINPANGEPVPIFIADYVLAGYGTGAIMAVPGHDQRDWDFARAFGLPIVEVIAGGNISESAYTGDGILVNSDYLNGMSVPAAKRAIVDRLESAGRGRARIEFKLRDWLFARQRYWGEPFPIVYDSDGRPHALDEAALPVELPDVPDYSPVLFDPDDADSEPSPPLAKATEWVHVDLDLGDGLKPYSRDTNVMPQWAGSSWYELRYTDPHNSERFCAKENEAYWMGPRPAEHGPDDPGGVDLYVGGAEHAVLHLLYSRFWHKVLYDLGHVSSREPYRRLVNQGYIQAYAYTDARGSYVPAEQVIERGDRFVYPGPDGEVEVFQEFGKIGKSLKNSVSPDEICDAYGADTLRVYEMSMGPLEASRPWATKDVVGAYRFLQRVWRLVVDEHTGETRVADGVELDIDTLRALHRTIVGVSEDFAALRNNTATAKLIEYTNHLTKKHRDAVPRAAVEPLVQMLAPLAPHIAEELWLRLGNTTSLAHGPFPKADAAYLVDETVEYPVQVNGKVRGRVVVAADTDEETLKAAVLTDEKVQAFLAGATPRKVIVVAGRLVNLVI
T1 sequence (P07813 whole entry): as the sequence (P07813 whole entry D342E) above, with E342D counted along it

For the compound `NCC1OB(O)c2c(OCCCO)cccc21` (centres unmarked) [AN3213], the reported residence time on ecLeuRS [1] (ecLeuRS and tRNA^Leu) is 23 h.

As usually defined, the Kd is the constant that tells how readily two partners part at equilibrium. Broadly, the kon is the second-order rate constant of association. As for `NC[C@H]1OB(O)c2c(OCCCO)cccc21` [Epetraborole], on ecLeuRS [2], the Kd is 1.1 ± 0.071 µM and the association rate constant (kon) was determined as 62000 ± 33000 M⁻¹ s⁻¹. Moreover, on ecLeuRS [2] (ecLeuRS), the Kd/IC50 turned out to be 367. The compound also had an MIC in the test on E. coli ATCC25922 [3] (Escherichia coli, ATCC25922) of 1.56 µM (≈ 0.37 µg/mL). Besides, the residence time at ecLeuRS [1] (ecLeuRS with tRNA^Leu) is on record as 23 h.

Broadly, the IC50 is the point on the concentration scale where inhibition reaches its midpoint. The term koff denotes the rate constant with which the complex falls apart. As to `NC[C@H]1OB(O)c2c(OCCO)ccc(Cl)c21` [Ganfeborole, (S)-3-(Aminomethyl)-4-chloro-7-(2-hydroxyethoxy)benzo[c][1,2]oxaborol-1(3H)-ol], the IC50 on mtLeuRS [4] was 0.001 ± 0.0001 µM; at ecLeuRS [5], 0.002 ± 0.0001 µM; against ecLeuRS D342E [6] (IC50, 2 min preincubation), 0.278 ± 0.019 µM; at ecLeuRS D342E [6] (IC50, 20 min preincubation), 0.06 ± 0.004 µM; at ecLeuRS D342E [6] (IC50, 1 h preincubation), 0.02 ± 0.002 µM; in the test on human cytoplasmic LeuRS it was 132 µM. Also, the IC50 in [13] was greater than 300 µM. In addition, on ecLeuRS D342E [6], the “fold increase in IC50, D342E mutant versus ecLeuRS” value is given as 10 fold. Also, the “fold more potent binding than compound 1” value at mtLeuRS [7] (SPR with AMP) was ~ 50 fold; at ecLeuRS [2] (ecLeuRS, SPR with AMP) it was 30-40 fold. In addition, the Kd/IC50 at mtLeuRS [7] (ratio of SPR Kd (AMP) and IC50 after 1 h preincubation) was found to be 7; at ecLeuRS [2] (ecLeuRS), 8.5; on ecLeuRS D342E [8], 85. In addition, the values for the Kd at ecLeuRS [2], at ecLeuRS D342E [8] and on mtLeuRS [14] were 0.017 ± 0.001 µM, 1.7 ± 0.197 µM and 0.0104 µM, respectively. For the same compound, at ecLeuRS [2] (ecLeuRS, in the presence of AMP), the “SPR tR (residence time)” value worked out at 104 ± 5 min. The values for the koff at ecLeuRS [2] (read-out: SPR koff) and on ecLeuRS D342E [8] (read-out: SPR koff) were 0.00016 ± 1e-05 s⁻¹ and 0.07 ± 0.0071 s⁻¹, respectively. Further, the kon on ecLeuRS [2] is 9500 ± 500 M⁻¹ s⁻¹; on ecLeuRS D342E [8] (read-out: SPR kon), 42000 ± 1000 M⁻¹ s⁻¹. Besides, the residence time was determined as 100 min at ecLeuRS [2] (read-out: SPR tR (residence time), ecLeuRS, in the presence of AMP) and 0.24 ± 0.02 min on ecLeuRS D342E [8] (read-out: SPR tR (residence time)). Also, the MIC against M. tuberculosis H37Rv was 0.058 µM (≈ 0.0149 µg/mL); against E. coli ATCC25922 [3] (E. coli wild-type, Table 4 (CAMH medium)) it was greater than 1000 µM; in the test with E. coli ATCC25922 [3] (Escherichia coli, ATCC25922), greater than 1000 µM; in test [10], 1.56 µM (≈ 0.402 µg/mL); in test [10] (Escherichia coli, read-out: MIC, four mutant strains together), 1.56 to 6.25 µM (≈ 0.402 to 1.61 µg/mL); in the test on E. coli ATCC25922 [11] (ATCC25922, read-out: MIC of ganfeborole + 12.5 μM Nva, E. coli ATCC25922, M9 media, + 12.5 μM Nva) it was 0.4 µM. For the same compound, the MIC with E. coli ATCC25922 [11] (ATCC25922, read-out: MIC of ganfeborole + 100 μM Nva + 100 μM Leu, E. coli ATCC25922, M9 media, + 100 μM Nva + 100 μM Leu) was 1600 µM. In addition, in the test on E. coli ATCC25922 [3] (wild-type E. coli), the “antibacterial activity towards E. coli, no activity up to” value is greater than 1 mM. The “PAE 1xMIC” value in test [9] (setting [15]) amounted to 0 h. The “PAE 10xMIC” value in test [9] (setting [16]) is listed as 32 ± 2 h. Also, the “PAE 30xMIC” value in test [9] (setting [17]) came out at 39 ± 2 h. The “PAE 50xMIC” value stood at 77 ± 4 h in [9] (setting [18]) and 77 h in test [9] (50xMIC exposure for 2.5 h, 10,000-fold dilution, listed as ganfeborole). Further, the “MIC / antibacterial activity in efflux pump mutant strains” value with E. coli ΔtolC and ΔacrAB is on record as “no antibacterial activity”. For the same compound, the “antibacterial activity, no activity up to” value in the test on E. coli ΔtolC and ΔacrAB is reported as greater than 1 mM. In addition, in the test with E. coli ATCC25922 [11] (E. coli, 12.5 μM Nva), the “fold decrease in the MIC of ganfeborole on addition of Nva” value was greater than 1000 fold. In the test on E. coli ATCC25922 [11] (checkerboard of Nva and ganfeborole, E. coli ATCC25922), the FICI is on record as less than 0.5. The time-kill result with E. coli ATCC25922 [12] was “cidality”.

In the case of `NNC(=O)c1ccncc1` [Isoniazid], in the test on M. tuberculosis H37Rv, the MIC came out at 0.23 µM (≈ 0.0315 µg/mL). For the same compound, the “PAE at any concentration” value in test [9] (1x to 50xMIC) is given as “no detectable PAE”. Further, the “PAE 1xMIC” value in test [9] (setting [15]) came out at 0 h. The “PAE 10xMIC” value in test [9] (setting [16]) is given as 0 h. Besides, in test [9] (setting [17]), the “PAE 30xMIC” value is recorded as 0 h. In addition, the “PAE 50xMIC” value in test [9] (setting [18]) amounted to 0 h.

Turning to `CCC[C@H](N)C(=O)O` [Nva, L-Norvaline], the “effect on bacterial growth, no effect up to” value in the test with E. coli ATCC25922 [3] (Nva alone, E. coli) is greater than 200 µM. Further, the MIC turned out to be 25 µM in the test on E. coli ATCC25922 [11] (ATCC25922, read-out: MIC of Nva with 6.4 μM ganfeborole, E. coli ATCC25922, in the presence of 3.1 μM Leu) and 1600 µM in the test with E. coli ATCC25922 [11] (ATCC25922, read-out: MIC of Nva with 6.4 μM ganfeborole, E. coli ATCC25922, with 200 μM Leu).

In turn, `CO[C@H]1/C=C/O[C@@]2(C)Oc3c(C)c(O)c4c(O)c(c(/C=N/N5CCN(C)CC5)c(O)c4c3C2=O)NC(=O)/C(C)=C\C=C\[C@H](C)[C@H](O)[C@@H](C)[C@@H](O)[C@@H](C)[C@H](OC(C)=O)[C@@H]1C` [Rifampicin] returned an MIC against M. tuberculosis H37Rv of 0.04 µM (≈ 0.0329 µg/mL). In test [9], the “PAE 1xMIC” value was determined as 22 ± 1 h; the “PAE 10xMIC” value was 30 ± 2 h; the “PAE 30xMIC” value is 36 ± 3 h; the “PAE 50xMIC” value was 72 h and 72 ± 4 h. In addition, the PAE in the test on M. tuberculosis is 68 to 77 h.
